This assay concerns mild to moderate severity Alzheimer's patients. The assay is described as follows: ADAS-cog11 cognitive test in Alzheimer's patients stratified by ApoE4 genotype (trial NCT02560753). In kind it is in vivo, human. The note with it: for cognitive improvement (ADAS-cog11 score change): D1-D14 and D1-D21. The method, then: Table 8c compares the average ADAS-cog11 score of all subjects, treated at all doses of T3D-959 in trial NCT02560753 (ClinicalTrials.gov), stratified by ApoE4 genotype and compares those scores with the average score of the group of subjects dosed at 3 mg, 10 mg, and 30 mg/d. ADAS-cog11 score change from day 1 (pre-dosing) to day 14 (D1-D14, end of treatment) and from day 1 to day 21 (D1-D21, followup) are shown.
Shown in this table are ADAS-cog11 cognitive test score changes from before dosing on day 1 of treatment (D1) to end of drug treatment on Day 14 (D14) and at follow-up 7 days post-dosing on Day 21 (D21). Drug treatment of mild to moderate severity Alzheimer's patients (MMSE=14-26) with T3D-959 was for 14 days q.d. at 3 mg, 10 mg, 30 mg or 90 mg (n=number of subjects evaluable at each dose). The ADAS-cog11 test score changes at each dose were stratified by ApoE4 genotype [E4=one or two ApoE4 alleles, Non-E4=no ApoE4 alleles].
ADAS-cog score change from day 1 to day 14 (D1-D14) and from day 1 to day 21 (D1-D21) are shown.
Adult human subjects who were tested for the presence of the ApoE4 gene (one or two E4 alleles) and had Alzheimer's disease were tested with the compound of the invention ((1S)-5-{5-ethyl-2-(4-methoxyphenyl)-1,3-oxazol-4-yl]ethoxy}-2,3-dihydro-1H-inden-1-yl) acetic acid, sodium salt. Subjects either lacked ApoE4 alleles (non-E4) or had one or two ApoE4 alleles (E4).

For the compound `CCc1oc(-c2ccc(OC)cc2)nc1CCOc1ccc2c(c1)CC[C@H]2CC(=O)[O-].[Na+]`, for the setting “AD subjects with one or two ApoE4 alleles”, the “most effective / required daily dose for cognitive improvement” value was not below 30 mg. For the same compound, where the note is “ApoE4 non-carrier AD subjects”, the “most effective daily dose for cognitive improvement” value is listed as 3 to 30 mg qd. The “cognitive improvement (ADAS-cog11 score change)” value (ApoE4 non-carriers, 3 mg, 10 mg and 30 mg/d q.d. for 14 days) is given as “showed improvement in cognition”.

As for `CCc1oc(-c2ccc(OC)cc2)nc1CCOc1ccc2c(c1)CC[C@H]2CC(=O)[O-].[Na+]` [Example T3D-959], the “cognitive improvement (ADAS-cog11 score change)” value (ApoE4 carriers (one or two ApoE4 alleles), 30 mg and 90 mg/d q.d. for 14 days) was “improvement”; the “cognitive improvement (ADAS-cog11 score change)” value (ApoE4 non-carriers, 3 mg, 10 mg and 30 mg/d q.d. for 14 days, acetic acid, sodium salt) is “greater cognitive improvement”.
